Reference: patent US20060149100A1, “Process for separating and recovering 3-hydroxypropionic acid and acrylic acid” (priority 2003, published 2006)

Assays:
[1] = Extraction of acrylic acid and 3-hydroxypropionic acid from aqueous stock solutions using various extractants; conditions: 22° C.; for Partition Coefficient, D AA / Partition Coefficient, D 3HP: extractant phase/aqueous phase
Text: In this Example, there were utilized five (5) aqueous stock solutions. The aqueous stock solutions comprise 3-hydroxypropionic acid and acrylic acid. In each of the five aqueous stock solutions, the concentration of 3-hydroxypropionic acid is approximately two times higher than the concentration of the acrylic acid.
In carrying out the following extractions of 3-hydroxypropionic acid and acrylic acid from aqueous stock solutions comprising 3-hydroxypropionic acid and acrylic acid, the following organic extractants were used: • a. Decanol • b. Methyl isobutyl ketone (MiBK) • c. Isopropyl ether • d. Methyl acrylate • e. Methyl propionate • f. Methylene chloride (CH2Cl2) • g. Toluene • h. Isopropyl acetate • i. Ethyl acetate • j. 50/50 wt % Tributyl phosphate (TBP) and ISOPAR-K isoparaffinic hydrocarbon available from Exxon Mobil Corporation The extraction procedure utilized in the Examples herein for separating and recovering 3-hydroxypropionic acid and acrylic acid from aqueous solutions comprising 3-hydroxypropionic acid and acrylic acid is set forth below.
1. To a 15 ml centrifuge tube 5 ml of an acid stock solution and an extractant were added. Masses of the empty centrifuge tube, the aqueous solution and extractant were recorded.
2. The tube was placed on a platform shaker and the contents in the tube were mixed at 230 rpm for 30 minutes at 22° C. (rpm designates revolutions per minute).
3. At the end of mixing, the tube was centrifuged at 4500 rpm for 5 minutes.
4. The volumes of the aqueous and extractant phases in the tube were recorded.
5. The aqueous phase was separated from the extractant phase and the masses of both phases were recorded.
6. The acrylic acid and the 3-hydroxypropionic acid in the aqueous solution were analyzed by HPLC.
7. The concentrations of acrylic acid and 3-hydroxypropionic acid in the organic extractant were calculated by subtracting the concentrations of acrylic acid and 3-hydroxypropionic acid in the aqueous phase from the initial concentration in the stock solution.

[2] = Distillation of organic extractant from acrylic acid solution in the presence of water; type: physicochemical; conditions: distillation at about 100 mm Hg, room temperature; 18.5 g isopropyl ether, 3 g acrylic acid, 9 g water
Experimental: In this Example, there is shown the process for separating and recovering acrylic acid from a solution comprising acrylic acid and an organic extractant that has a boiling point lower than 100° C. The process involves distillation of the solution, in the presence of water, to distill the organic extractant having a boiling point lower than 100° C., resulting in an aqueous acrylic acid solution.
More particularly, 18.5 grams of isopropyl ether, 3 grams of acrylic acid, and 9 grams of distilled water were introduced into a 100 ml round bottom flask. The organic extractant, isopropyl ether, that has a boiling point of 68° C. at ambient temperature, was then distilled from the solution. The distillation of the isopropyl ether organic extractant, was achieved by applying to the flask, containing the solution of acrylic acid, organic extractant and water, a reduced pressure of about 100 mm Hg, at room temperature (about 20-24° C.). The distillation was completed in about 5 minutes. The resulting isopropyl ether distillate that was collected, and the remaining aqueous solution in the flask, were weighed, and the concentration of acrylic acid in both the isopropyl ether distillate and in the aqueous solution, were determined by means of titration. The amount of acrylic acid that remained in the flask as the aqueous solution was 91%. […]

[3] = Aqueous Stock Solution No. 1 (0.67 wt % AA, 1.34 wt % 3HP)
[4] = Aqueous Stock Solution No. 5 (12.51 wt % AA, 25.05 wt % 3HP)
[5] = Aqueous Stock Solution No. 2 (3.33 wt % AA, 6.67 wt % 3HP)
[6] = Aqueous Stock Solution No. 3 (6.67 wt % AA, 13.34 wt % 3HP)
[7] = Aqueous Stock Solution No. 4 (9.99 wt % AA, 19.98 wt % 3HP)

| Acid in Extractant Phase, wt % 3HP [1, 3] | Separation Factor, S AA/3HP [1, 3] | Compound | Acid in Aqueous Phase, wt % 3HP [1, 3] | Acid in Aqueous Phase, wt % AA [1, 3] | Acid in Extractant Phase, wt % AA [1, 3] | Partition Coefficient, D AA [1, 3] | Acid in Aqueous Phase, wt % 3HP [1, 4] | Acid in Aqueous Phase, wt % AA [1, 4] | Acid in Extractant Phase, wt % 3HP [1, 4] | Acid in Extractant Phase, wt % AA [1, 4] | Separation Factor, S AA/3HP [1, 4] | Partition Coefficient, D 3HP [1, 4] | Partition Coefficient, D AA [1, 4] | Partition Coefficient, D 3HP [1, 3] | other results |
| --- | --- | --- | --- | --- | --- | --- | --- | --- | --- | --- | --- | --- | --- | --- | --- |
|  |  | ClCCl [CH2Cl2, Methylene chloride] | 1.39 wt % | 0.61 wt % | 0.04 wt % | 0.06 | 25.05 wt % | 7.84 wt % | 0.53 wt % | 3.72 wt % | 22.45 | 0.02 | 0.48 |  |  |
| 0.03 wt % | 77.18 | CCCCCCCCCCO [Decanol] | 1.37 wt % | 0.31 wt % | 0.47 wt % |  | 25.90 wt % | 5.94 wt % | 3.21 wt % | 8.20 wt % | 11.13 |  |  |  |  |
| 0.20 wt % | 16.55 | CCOC(C)=O [Ethyl Acetate, Ethyl acetate, reference compound] | 1.13 wt % | 0.20 wt % | 0.59 wt % |  | 21.16 wt % | 4.22 wt % | 8.68 wt % | 8.07 wt % | 4.66 |  |  |  | Acid in Aqueous Phase, wt % 3HP [1, 5]: 5.77 wt %; Acid in Aqueous Phase, wt % AA [1, 5]: 0.97 wt %; Acid in Extractant Phase, wt % 3HP [1, 5]: 1.21 wt %; Acid in Extractant Phase, wt % AA [1, 5]: 2.87 wt %; Separation Factor, S AA/3HP [1, 5]: 14.18; Acid in Aqueous Phase, wt % 3HP [1, 6]: 11.38 wt %; Acid in Aqueous Phase, wt % AA [1, 6]: 2.02 wt %; Acid in Extractant Phase, wt % 3HP [1, 6]: 3.09 wt %; Acid in Extractant Phase, wt % AA [1, 6]: 5.36 wt %; Separation Factor, S AA/3HP [1, 6]: 9.79; Acid in Aqueous Phase, wt % 3HP [1, 7]: 17.08 wt %; Acid in Aqueous Phase, wt % AA [1, 7]: 3.18 wt %; Acid in Extractant Phase, wt % 3HP [1, 7]: 5.17 wt %; Acid in Extractant Phase, wt % AA [1, 7]: 7.53 wt %; Separation Factor, S AA/3HP [1, 7]: 7.81 |
| 0.04 wt % | 40.59 | CC(C)OC(C)C [Isopropyl Ether, Isopropyl ether] | 1.30 wt % | 0.36 wt % | 0.44 wt % |  | 25.72 wt % | 5.92 wt % | 1.85 wt % | 9.79 wt % | 22.91 |  |  |  | amount of acrylic acid that remained in the flask as the aqueous solution [2]: 91%; amount of acrylic acid that was co-distilled with the extractant [2]: about 7% |
| 0.03 wt % | 108.82 | CC(=O)CC(C)C [MiBK, Methyl isobutyl ketone] | 1.32 wt % | 0.23 wt % | 0.59 wt % |  | 24.17 wt % | 4.11 wt % | 5.46 wt % | 9.92 wt % | 10.69 |  |  |  |  |
|  |  | Cc1ccccc1 [Toluene] | 1.42 wt % | 0.69 wt % |  |  | 26.72 wt % | 10.57 wt % |  | 2.47 wt % |  |  |  |  |  |

| Compound | Acid in Extractant Phase, wt % 3HP [1, 3] | Separation Factor, S AA/3HP [1, 3] | Acid in Aqueous Phase, wt % 3HP [1, 3] | Acid in Aqueous Phase, wt % AA [1, 3] | Acid in Extractant Phase, wt % AA [1, 3] | Partition Coefficient, D AA [1, 3] | Acid in Aqueous Phase, wt % 3HP [1, 4] | Acid in Aqueous Phase, wt % AA [1, 4] | Acid in Extractant Phase, wt % 3HP [1, 4] | Acid in Extractant Phase, wt % AA [1, 4] | Separation Factor, S AA/3HP [1, 4] | Partition Coefficient, D 3HP [1, 4] | Partition Coefficient, D AA [1, 4] | Partition Coefficient, D 3HP [1, 3] | other results |
| --- | --- | --- | --- | --- | --- | --- | --- | --- | --- | --- | --- | --- | --- | --- | --- |
| CC(=O)OC(C)C [Isopropyl Acetate, Isopropyl acetate] | 0.06 wt % | 43.36 | 1.28 wt % | 0.24 wt % | 0.52 wt % | 2.19 | 25.35 wt % | 4.42 wt % | 3.82 wt % | 8.95 wt % | 13.43 | 0.15 | 2.02 | 0.05 |  |
| C=CC(=O)OC [Methyl Acrylate, Methyl acrylate] | 0.07 wt % | 31.01 | 1.24 wt % | 0.25 wt % | 0.45 wt % | 1.82 | 21.57 wt % | 4.51 wt % | 6.70 wt % | 8.13 wt % | 5.80 | 0.31 | 1.80 | 0.06 |  |
| CCC(=O)OC [Methyl Propionate, Methyl propionate] | 0.06 wt % | 44.43 | 1.22 wt % | 0.24 wt % | 0.51 wt % | 2.13 | 22.63 wt % | 4.54 wt % | 5.54 wt % | 8.55 wt % | 7.69 | 0.25 | 1.88 | 0.05 |  |
